Reference: US9586931B2 (Merck Sharp & Dohme Corp., priority 2012, dated 2017)
pIC50: −log10 of the molar value.

The compounds below were run against T1, recombinant human GST-Syk (Homo sapiens, UniProt P43405) (assay: Homogeneous Time-Resolved Fluorescence (HTRF) assay for the recombinant human Syk enzyme). Details: recombinant human GST-Syk 5 pM, ATP 25 μM, 10-dose titration 10 μM to 0.508 nM; read-out: rhSYK Activity IC50.
T1 construct: purchased Carna Biosciences 08-176
Type: biochemical
Procedure, shortened: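 GST-hSyk fusion protein phosphorylated a peptide for 45 min at room temperature. The reaction was quenched with 2 nM Eu-anti-phosphotyrosine antibody and 70 nM SA-APC in 15 mM Tris pH 7.5, 40 mM EDTA, 0.01% Tween 20. The HTRF signal was read after 30 min.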

| Compound | pIC50 |
| --- | --- |
| Cc1cc(Nc2nccc(C(F)(F)F)n2)cc(-c2ncnn2C[C@H](O)CO)c1 [Example 2.15, (2S)-3-[5-(3-methyl-5-{[4-(trifluoromethyl)pyrimidin-2-yl]amino}phenyl)-1H-1,2,4-triazol-1-yl]propane-1,2-diol] | 5.50 |
| CC(=O)N1CCN(C(=O)Cn2cc(-c3cc(C)cc(Nc4nccc(C(F)(F)F)n4)c3)nn2)CC1 [Example 5.59, N-(3-{1-[2-(4-acetylpiperazin-1-yl)-2-oxoethyl]-1H-1,2,3-triazol-4-yl}-5-methylphenyl)-4-(trifluoromethyl)pyrimidin-2-amine] | 7.16 |
| Cc1cc(Nc2cc(C(F)(F)F)ccn2)nc(-c2cn(C(C)C(=O)N[C@H]3C[C@@H]3c3ccccc3)nn2)c1 (stereo partly drawn) [Example 1.40, 2-[4-(4-methyl-6-{[4-(trifluoromethyl)pyridin-2-yl]amino}pyridin-2-yl)-1H-1,2,3-triazol-1-yl]-N-[(1S,2R)-2-phenylcyclopropyl]propanamide] | 6.93 |
| Cc1ccnc(Nc2cc(C)cc(-c3cn(CCO)nn3)n2)c1 [Example 5.18, 2-(4-{4-methyl-6-[(4-methylpyridin-2-yl)amino]pyridin-2-yl}-1H-1,2,3-triazol-1-yl)ethanol] | 6.81 |
| Cc1cc(Nc2cc(C(F)(F)F)ccn2)nc(-c2cn(CC(=O)N3CCCC3)nn2)c1 [Example 5.87, 4-methyl-6-[1-(2-oxo-2-pyrrolidin-1-ylethyl)-1H-1,2,3-triazol-4-yl]-N-[4-(trifluoromethyl)pyridin-2-yl]pyridin-2-amine] | 7.09 |
| Cc1cc(Nc2cc(C(F)(F)F)ccn2)nc(-c2cn(C(C)C(=O)NCC3(c4ccc(F)cc4)CCOCC3)nn2)c1 (centres unmarked) [Example 1.49, N-{[4-(4-fluorophenyl)tetrahydro-2H-pyran-4-yl]methyl}-2-[4-(4-methyl-6-{[4-(trifluoromethyl)pyridin-2-yl]amino}pyridin-2-yl)-1H-1,2,3-triazol-1-yl]propanamide] | 6.39 |
| Cc1cc(Nc2cc(C(F)(F)F)ccn2)nc(-c2cn(C/C=C/COc3ccccc3Cl)nn2)c1 [Example 5.32, 6-{1-[(2E)-4-(2-chlorophenoxy)but-2-en-1-yl]-1H-1,2,3-triazol-4-yl}-4-methyl-N-[4-(trifluoromethyl)pyridin-2-yl]pyridin-2-amine] | 6.12 |
| Cc1cc(Nc2cc(C(F)(F)F)ccn2)nc(-c2cn(Cc3[nH]cnc3C)nn2)c1 [Example 5.106, 4-methyl-6-{1-[(4-methyl-1H-imidazol-5-yl)methyl]-1H-1,2,3-triazol-4-yl}-N-[4-(trifluoromethyl)pyridin-2-yl]pyridin-2-amine] | 8.80 |
| Cc1cc(Nc2cc(C(F)(F)F)ccn2)nc(-c2cn(C(C)C(=O)N3CCN(Cc4ccccc4)C(c4ccccc4)C3)nn2)c1 (centres unmarked) [Example 1.50, 6-{1-[2-(4-benzyl-3-phenylpiperazin-1-yl)-1-methyl-2-oxoethyl]-1H-1,2,3-triazol-4-yl}-4-methyl-N-[4-(trifluoromethyl)pyridin-2-yl]pyridin-2-amine] | 6.24 |
| Cc1cc(Nc2cc(C(F)(F)F)ccn2)nc(-c2cn(C(CO)c3ccc(C(N)=O)cc3)nn2)c1 (centres unmarked) [Example 1.9, 4-{2-hydroxy-1-[4-(4-methyl-6-{[4-(trifluoromethyl)pyridin-2-yl]amino}pyridin-2-yl)-1H-1,2,3-triazol-1-yl]ethyl}benzamide] | 8.54 |
| Cc1cc(Nc2nccc(C(F)(F)F)n2)cc(-n2cc(C3(O)CCC4(CC3)OCCO4)nn2)c1 [Example 15, 8-[1-(3-Methyl-5-{[4-(trifluoromethyl)pyrimidin-2-yl]amino}phenyl)-1H-1,2,3-triazol-4-yl]-1,4-dioxaspiro[4.5]decan-8-ol] | 7.02 |
| Cc1cc(Nc2cc(C3CCC3)ccn2)nc(-c2cn(C(C)c3ccc(C(=O)O)cc3)nn2)c1 (centres unmarked) [Example 2.10, 4-[1-(4-{6-[(4-cyclobutylpyridin-2-yl)amino]-4-methylpyridin-2-yl}-1H-1,2,3-triazol-1-yl)ethyl]benzoic acid] | 8.43 |
| Cc1cc(Nc2cc(C(F)(F)F)ccn2)nc(-c2cn(CC3(O)CCOC3)nn2)c1 (single isomer, unassigned) [Example 5.12, 3-{[4-(4-methyl-6-{[4-(trifluoromethyl)pyridin-2-yl]amino}pyridin-2-yl)-1H-1,2,3-triazol-1-yl]methyl}tetrahydrofuran-3-ol] | 7.95 |
| Cc1cc(Nc2cc(C(F)(F)F)ccn2)nc(-c2cn(C(C)C(=O)NCc3cc4ccc(F)cc4[nH]c3=O)nn2)c1 (centres unmarked) [Example 1.43, N-[(7-fluoro-2-oxo-1,2-dihydroquinolin-3-yl)methyl]-2-[4-(4-methyl-6-{[4-(trifluoromethyl)pyridin-2-yl]amino}pyridin-2-yl)-1H-1,2,3-triazol-1-yl]propanamide] | 7.19 |
| Cc1cc(Nc2cc(C(F)(F)F)ccn2)nc(-c2cn(C(C)C(=O)N[C@@H](CO)Cc3ccccc3)nn2)c1 (stereo partly drawn) [Example 1.27, N-[(1R)-1-benzyl-2-hydroxyethyl]-2-[4-(4-methyl-6-{[4-(trifluoromethyl)pyridin-2-yl]amino}pyridin-2-yl)-1H-1,2,3-triazol-1-yl]propanamide] | 6.99 |

Other lines, results leading:

| pIC50 | Compound |
| --- | --- |
| 8.38 | Cc1cc(Nc2cc(C(F)(F)F)ccn2)nc(-c2cn([C@@H]3CN(C(=O)CO)C[C@H]3O)nn2)c1 (racemic) [Example 13.1, (+/−)-2-Bydroxy-1-((3R,4R)-3-hydroxy-4-(4-(4-methyl-6-((4-(trifluoromethyl)pyridin-2-yl)amino)pyridin-2-yl)-1H-1,2,3-triazol-1-yl)pyrrolidin-1-yl)ethanone] |
| 8.02 | Cc1cc(Nc2nccc(C(F)F)n2)cc(-c2cn(C3CCCC(O)C3O)nn2)c1 (single isomer, unassigned) [Example 25.1, 3-(4-(3-((4-(Difluoromethyl)pyrimidin-2-yl)amino)-5-methylphenyl)-1H-1,2,3-triazol-1-yl)cyclohexane-1,2-diol] |
| 7.98 | Cc1cc(Nc2nccc(C(F)F)n2)cc(-c2cn(C3CCCC(C)(O)C3O)nn2)c1 (single isomer, unassigned) [Example 29.3, 3-(4-(3-((4-(Difluoromethyl)pyrimidin-2-yl)amino)-5-methylphenyl)-1H-1,2,3-triazol-1-yl)-1-methylcyclohexane-1,2-diol] |
| 6.50 | COC(=O)C1CCC(n2cc(-c3cc(C)cc(Nc4cc(C(F)(F)F)ccn4)n3)nn2)CC1(C)C (centres unmarked) [Example 9.3, methyl 2,2-dimethyl-4-[4-(4-methyl-6-{[4-(trifluoromethyl)pyridin-2-yl]amino}pyridin-2-yl)-1H-1,2,3-triazol-1-yl]cyclohexane-carboxylate] |
| 8.14 | Cc1cc(Nc2cc(C(F)F)ccn2)nc(-c2cn(CC(C)(O)CC#N)nn2)c1 (single isomer, unassigned) [Example 23.1, 4-(4-(6-((4-(difluoromethyl)pyridin-2-yl)amino)-4-methylpyridin-2-yl)-1H-1,2,3-triazol-1-yl)-3-hydroxy-3-methylbutanenitrile] |
| 8.06 | Cc1cc(Nc2cc(C(F)(F)F)ccn2)nc(-c2cn(CC(O)C(O)c3ccccc3)nn2)c1 (centres unmarked) [Example 10.1, 3-(4-(4-Methyl-6-((4-(trifluoromethyl)pyridin-2-yl)amino)pyridin-2-yl)-1H-1,2,3-triazol-1-yl)-1-phenylpropane-1,2-diol] |
| 7.32 | Cc1cc(Nc2ncc(F)c(C(F)F)n2)cc(-c2cn(CC(C)(O)C(C)(C)O)nn2)c1 (centres unmarked) [Example 21.15, 1-[4-(3-{[4-(difluoromethyl)-5-fluoropyrimidin-2-yl]amino}-5-methylphenyl)-1H-1,2,3-triazol-1-yl]-2,3-dimethylbutane-2,3-diol] |
| 8.96 | Cc1cc(Nc2nccc(C(F)F)n2)cc(-c2cn(CC3OC(=O)NC34CC4)nn2)c1 (single isomer, unassigned) [Example 7.17, 7-((4-(3-((4-(difluoromethyl)pyrimidin-2-yl)amino)-5-methylphenyl)-1H-1,2,3-triazol-1-yl)methyl)-6-oxa-4-azaspiro[2.4]heptan-5-one] |
| 7.26 | Cc1cc(Nc2nccc(C(F)(F)F)n2)cc(-c2cn([C@@H]3CCC[C@H](O)C3)nn2)c1 (racemic) [Example 17.1, Racemic cis-3-(4-(3-methyl-5-((4-(trifluoromethyl)pyrimidin-2-yl)amino)phenyl)-1H-1,2,3-triazol-1-yl)cyclohexanol] |
| 7.74 | Cc1cc(Nc2ncc(F)c(C(F)F)n2)cc(-c2cn(CC(C)(O)C(C)(C)O)nn2)c1 (centres unmarked) [Example 21.34, 1-[4-(3-{[4-(difluoromethyl)-5-fluoropyrimidin-2-yl]amino}-5-methylphenyl)-1H-1,2,3-triazol-1-yl]-2,3-dimethylbutane-2,3-diol] |
| 7.65 | Cc1cc(Nc2cc(C(C)F)ccn2)nc(-c2cn(CC(C)(O)C(C)(C)O)nn2)c1 (centres unmarked) [Example 21.32, 1-[4-(6-{[4-(1-fluoroethyl)pyridin-2-yl]amino}-4-methylpyridin-2-yl)-1H-1,2,3-triazol-1-yl]-2,3-dimethylbutane-2,3-diol] |
| 7.87 | Cc1cc(Nc2nccc(C(F)F)n2)cc(-c2cn(CC(C)(O)C(C)(C)O)nn2)c1 (centres unmarked) [Example 21.25, 1-[4-(3-{[4-(difluoromethyl)pyrimidin-2-yl]amino}-5-methylphenyl)-1H-1,2,3-triazol-1-yl]-2,3-dimethylbutane-2,3-diol] |
| 7.07 | Cc1cc(Nc2cc(C)c(F)cn2)nc(-c2cn(CC(C)(O)C(C)(C)O)nn2)c1 (centres unmarked) [Example 21.22, 1-(4-{6-[(5-fluoro-4-methylpyridin-2-yl)amino]-4-methylpyridin-2-yl}-1H-1,2,3-triazol-1-yl)-2,3-dimethylbutane-2,3-diol] |
| 7.48 | Cc1cc(Nc2ncc(F)c(C(F)F)n2)cc(-c2cn(CC3OC(=O)NC3C)nn2)c1 (single isomer, unassigned) [Example 7.38, 5-{[4-(3-{[4-(difluoromethyl)-5-fluoropyrimidin-2-yl]amino}-5-methylphenyl)-1H-1,2,3-triazol-1-yl]methyl}-4-methyl-1,3-oxazolidin-2-one] |
